Like-named read-outs stand apart in the source and are kept apart here.
Columns and labels:
Type in all cases: cell-based, human
[1] = test system: all other cell lines; test: LDH release (cell membrane integrity), all other cell lines; settings: all samples from all other cell lines (n=3); 240 min
Experimental: In these experiments, integrity of cell membranes following taurolidine treatment was assessed by exclusion of trypan blue and by measuring the release of LDH in MM6, K-562, HL-60, and REH cells. Since BCS contains significant amounts of LDH, these experiments were conducted on cells cultured in AIM-V+0.01% BCS. Four hour treatment of cells was conducted in AIM-V containing 0.01% BCS in order to allow subsequent LDH assay without interference from BCS (which occurs in when normal culture medium, containing 10% BCS, is used). Thus, MM6 cells (5×10^5 cells/ml) were treated with taurolidine for four hours in AIM-V+0.01% BCS, after which an aliquot of the cell suspension was removed for measurement of LDH release. A parallel aliquot of cells was lysed by three cycles of freeze/thaw and the quantity of LDH released was taken to be 100%. Remaining cells were rinsed in HBSS and resuspended in growth medium for measurement of growth rates.
(§1) HL-60 cells treated with 50 μl taurolidine. In these samples, LDH present in the culture medium was 8.3±2.3% of that released by completely lysed cells, compared with 2.3±0.8% measured in control cultures. […] After 4 hour treatment, cells were rinsed and returned to growth medium and monitored for viability and growth over the following 3 days. […]

[2] = test system: ECV304 (endothelial cells); test: trypan blue exclusion, ECV304; settings: ECV304, after taurolidine treatment
Experimental: FIGS. 10A and 10B depict cell viability and growth rates for ECV304 cell line following taurolidine treatment, in terms of % trypan blue negative cells and % cell number, respectively. Cells were treated with various concentrations of taurolidine for 4 hours in AIM-V+0.01% BCS. After aliquots were collected for LDH assay, the remainder of the culture was rinsed in HBSS and resuspended in RPMI+10% BCS without taurolidine. Counts of trypan blue-negative cells (FIG. 10A), and total cell number (FIG. 10B), were recorded daily thereafter (with the measurement at Day 1 being made immediately after the 4 hour taurolidine treatment). Conditions were: no treatment (open circles); 25 μg/ml taurolidine (closed circles); 50 μg/ml taurolidine (open squares); 100 μg/ml taurolidine (closed squares); and vehicle alone (closed triangles). Doubling times were determined under each condition, and expressed as a percentage of the rate of doubling of untreated cells. These values are located to the right of the growth curves in (FIG. 10B). […]
as §1

[3] = test system: granulocytes; test: TUNEL / propidium iodide flow cytometry, granulocytes; settings: for cytotoxicity at 100 µg/mL: Homo sapiens
Experimental: Human granulocytes were isolated from heparinized blood by diluting blood 1:1 with 6% dextran to sediment RBC, then centrifuging to obtain leukocyte rich plasma. The remaining RBC were lysed by 20 second incubation with 0.2% NaCl. After lysis, NaCl was added to a final concentration of 0.9%, the sample was centrifuged, and the cell pellet resuspended in HBSS containing 0.5% HSA. An equal volume of Histopaque (Sigma) was layered underneath the cell suspension. Upon centrifugation, the PBMC remained above the Histopaque layer, while the granulocytes were sedimented. Purity of collected granulocytes was assayed by flow cytometry using PE-conjugated […].
In the second method, DNA fragmentation was detected via TUNEL assay according to the manufacturer's instructions. With this methodology, 2×10^6 cells were fixed with 2% paraformaldehyde, permeabilized with 0.1% Triton X-100/0.1% citrate, incubated at 37° C. with terminal deoxynucleotidyl transferase and FITC-dUTP, rinsed and analyzed by flow cytometry. Enhanced FITC signal indicates apoptosis-specific DNA fragmentation. Gavriali, et al, "Identification of programmed cell death in situ via specific labeling of nuclear DNA fragmentation," J Cell Biol 119:493 (1992). Parallel aliquots of unfixed cells were treated with PI and FITC-conjugated anti-CD14 and analyzed by flow cytometry, in order to identify cells with permeable cell membranes (since PI binds to DNA but is excluded from cells with intact plasma membranes) and also to determine the cell-specificity of the apoptotic signal.
The effect of taurolidine on granulocytes was assayed by TUNEL analysis on taurolidine-treated purified granulocytes. These experiments were conducted in culture medium rather than whole blood. Granulocytes were treated with 100 μg/ml taurolidine since it had been shown that this concentration of taurolidine is apoptogenic to peripheral blood monocytes treated in culture medium. TUNEL-positive granulocytes ranged from 2% to 30% in untreated samples, and varied according to blood donor. […] Therefore, the apoptogenic effect of taurolidine is not specific to monocytic cells.
^a Analysis by flow cytometry after staining cells with PI and
processing for TUNEL. Data are mean ± SEM of 5 experiments.

O=S1(=O)CCN(CN2CCS(=O)(=O)NC2)CN1 [taurolidine, 4,4'-methylenebis(perhydro-1,2,4-thiadiazin 1,1-dioxide)] was tested, and the “LDH levels, % of lysed cell samples” value [1] was no more than 7%, the “trypan blue staining during 4 day growth” value [2] was “did not demonstrate a significant increase in trypan blue staining” and the “trypan blue staining during 4 day growth” value ([2]; listed as Taurolidine) was “cells remained trypan blue negative”. The apoptosis of granulocytes ([3]; 100 μg/ml taurolidine, within 6 h, culture medium) was 92%, the cytotoxicity at 100 µg/mL ([3]; 6 h, granulocytes, 100 μg/ml taurolidine, mean ± SEM of 5 experiments (Table VII), read-out: % propidium iodide positive) was 1.6 ± 0.5% and the cytotoxicity at 100 µg/mL ([3]; granulocytes, 100 μg/ml, 6 hours (Table V), read-out: % Propidium Iodide Positive Cells) was 2%. The “effectiveness in granulocytes relative to monocytes” value ([3]; TUNEL, purified cells in culture medium) was “at least as effective”, the “% TUNEL-positive” value ([3]; granulocytes, 100 μg/ml taurolidine, mean ± SEM of 5 experiments (Table VII)) was 91.5 ± 3.5% and the “% TUNEL-Negative Cells” value ([3]; granulocytes, 100 μg/ml, 6 hours (Table V)) was 8%.

From patent US6303596A, “Use of taurolidine for treatment of leukemias” (priority 2000, dated 2001)
